Laboratory results taken from publication PMC6648837 (ACS Omega, 2019).
pIC50: −log10 of the molar value. Where two headings read alike, the source gives them in different places.

What was measured:
CYP3A4 = CYP3A4 (Homo sapiens, UniProt P08684); assay: CYP3A4 inhibition assay; type: biochemical; conditions: for CYP3A4 inhibition compared in words: versus dillapiol (14, 15: versus 13); for increased CYP3A4 inhibition relative to the methyl ester 4a (factor): esters of primary alcohol 2; for times more potent than dillapiol as CYP3A4 inhibitor: dillapiol = 1
CYP3A4, sequence (P08684 whole entry): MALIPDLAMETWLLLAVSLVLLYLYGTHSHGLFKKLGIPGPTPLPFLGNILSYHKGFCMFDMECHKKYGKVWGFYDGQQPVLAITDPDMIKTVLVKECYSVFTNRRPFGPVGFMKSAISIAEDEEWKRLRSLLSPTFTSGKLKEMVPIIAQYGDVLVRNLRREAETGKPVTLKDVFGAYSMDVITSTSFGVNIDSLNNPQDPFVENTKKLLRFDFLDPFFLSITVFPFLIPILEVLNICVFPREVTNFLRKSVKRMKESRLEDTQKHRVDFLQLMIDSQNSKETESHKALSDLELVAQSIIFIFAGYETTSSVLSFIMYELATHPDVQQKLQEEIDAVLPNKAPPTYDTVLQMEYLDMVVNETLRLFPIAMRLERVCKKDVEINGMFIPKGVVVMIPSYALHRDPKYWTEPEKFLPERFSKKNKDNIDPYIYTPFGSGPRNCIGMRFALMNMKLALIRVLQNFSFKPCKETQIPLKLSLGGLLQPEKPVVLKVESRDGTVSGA

Colorado potato beetle = conditions: in vivo bioassays; cited from earlier work

COc1c(CC(C)O)cc2c(c1OC)OCO2 (centres unmarked) [Compound 3]
CYP3A4 inhibition compared in words (CYP3A4): less potent than dillapiol

COc1c(CCCOC(C)=O)cc2c(c1OC)OCO2 [Compound 4a]
insecticide synergism of pyrethrum (Colorado potato beetle): no insecticide synergism
CYP3A4 inhibition compared in words (CYP3A4): essentially the same inhibitory effect as dillapiol

CCCCCC(=O)OCCCc1cc2c(c(OC)c1OC)OCO2 [Compound 4d]
increased CYP3A4 inhibition relative to the methyl ester 4a (factor) (CYP3A4): 2.8
pIC50 (CYP3A4; human, recombinant CYP3A4 (BD Gentest), probe dibenzyl fluorescein (DBF)): 5.48

COc1c(CCCOC(=O)c2ccccc2)cc2c(c1OC)OCO2 [Compound 4g]
insecticide synergism of pyrethrum (Colorado potato beetle): no insecticide synergism

COc1c(CCCOC(=O)c2ccccc2Cl)cc2c(c1OC)OCO2 [Compound 4h]
pIC50 (CYP3A4): 5.89

COc1c(CCCOC(=O)c2ccc(Cl)cc2)cc2c(c1OC)OCO2 [Compound 4i]
pIC50 (CYP3A4): 5.80
increased CYP3A4 inhibition relative to the methyl ester 4a (factor) (CYP3A4): greater than 6

COc1c(CCCOC(=O)c2ccc(Cl)cc2Cl)cc2c(c1OC)OCO2 [Compound 4j]
increased CYP3A4 inhibition relative to the methyl ester 4a (factor) (CYP3A4): greater than 6

COc1c(CCCOC(=O)C=Cc2ccccc2)cc2c(c1OC)OCO2 [Compound 4l]
pIC50 (CYP3A4): 5.62

COc1c(CCCOC(=O)C(c2ccccc2)c2ccccc2)cc2c(c1OC)OCO2 [Compound 4n]
increased CYP3A4 inhibition by a factor, benzhydryl versus benzyl group (4m) (CYP3A4): 5

COc1c(CC(C)OC(C)=O)cc2c(c1OC)OCO2 (centres unmarked) [Compound 5a]
pIC50 (CYP3A4): < 4.70

COc1c(CC(C)OC(=O)c2ccccc2)cc2c(c1OC)OCO2 (centres unmarked) [Compound 5g]
pIC50 (CYP3A4): 5.46

C=CCc1cc2c(cc1OC)OCO2 [Compound 8b]
insecticide synergism of pyrethrum (Colorado potato beetle): increased in vivo synergism relative to dillapiol

C=CCc1cc2c(cc1OCc1ccccc1Cl)OCO2 [Compound 8f]
times more potent than dillapiol as CYP3A4 inhibitor (CYP3A4): 86 times

C=CCc1cc2c(cc1OCc1ccccc1OC)OCO2 [Compound 8g]
times more potent than dillapiol as CYP3A4 inhibitor (CYP3A4): 0.9 times

COc1cc2c(cc1CCCOC(=O)C=Cc1ccccc1)OCO2 [Compound 11d]
pIC50 (CYP3A4): 4.76

O=C(C=Cc1ccccc1)OCCCc1cc2c(cc1OCc1ccccc1)OCO2 [Compound 11e]
pIC50 (CYP3A4): 5.33

O=C(OCCCc1cc2c(cc1OCc1ccccc1)OCO2)C(c1ccccc1)c1ccccc1 [Compound 11g]
pIC50 (CYP3A4): 6.00
